This note sets out measurements from patent US20070123508A1, “PAR2-modulating compounds and their use” (priority 2005, published 2007).

In the assay the target is T1, human PAR2 (Homo sapiens, UniProt P55085).
T1 construct: expressed in transfected cells; host or cells: NIH3T3 cells, transiently transfected; receptor in pSI-derived mammalian expression vector
T1 sequence (P55085 26-397): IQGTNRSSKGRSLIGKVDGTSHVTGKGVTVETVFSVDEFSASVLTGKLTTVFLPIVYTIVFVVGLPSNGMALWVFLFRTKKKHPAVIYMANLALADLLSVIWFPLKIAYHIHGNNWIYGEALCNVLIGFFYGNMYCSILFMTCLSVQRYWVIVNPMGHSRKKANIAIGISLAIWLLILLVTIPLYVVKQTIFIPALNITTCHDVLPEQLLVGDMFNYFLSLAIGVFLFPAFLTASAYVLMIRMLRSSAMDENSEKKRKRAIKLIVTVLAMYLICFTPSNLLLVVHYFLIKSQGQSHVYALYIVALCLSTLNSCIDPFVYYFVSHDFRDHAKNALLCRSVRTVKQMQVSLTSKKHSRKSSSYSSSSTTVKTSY
In words: Receptor Selection and Amplification Technology (R-SAT) functional receptor assay. Type of assay: cell-based. The following applies: for EC50: NIH3T3 cells transfected with PAR2, negative log of EC50 (molar); for Emax: percent maximum activation relative to the ligand SLIGRL, read-out: % Efficacy. The protocol:
The functional receptor assay, Receptor Selection and Amplification Technology (R-SAT), was used to investigate the pharmacological properties of known and novel PAR2 compounds. R-SAT is disclosed in U.S. Pat. Nos. 5,707,798, 5,912,132, and 5,955,281, all of which are hereby incorporated herein by reference in their entirety, including any drawings.
Briefly, NIH3T3 cells were grown in 96 well tissue culture plates to 70-80% confluence. Cells were transfected for 16-20 h with plasmid DNAs using Polyfect (Qiagen Inc.) using the manufacturer's protocols. R-SATs were generally performed with 4 ng/well of receptor and 20 ng/well of β-galactosidase plasmid DNA. All receptor constructs used were in the pSI-derived mammalian expression vector (Promega Inc). The PAR2 gene was amplified by PCR from genomic DNA using oligodeoxynucleotide primers based on the published sequence (GenBank Accession # Z49993 and Z49994). For large-scale transfections, cells were transfected for 16-20 h, then trypsinized and frozen in DMSO. Frozen cells were later thawed, plated at ˜10,000 cells per well of a 96 half-area well plate that contained drug. With both methods, cells were then grown in a humidified atmosphere with 5% ambient CO2 for five days. Media was then removed from the plates and marker gene activity was measured by the addition of the β-galactosidase substrate o-nitrophenyl β-D-galactopyranoside (ONPG) in PBS with 0.5% NP-40. The resulting colorimetric reaction was measured using a spectrophotometric plate reader (Titertek Inc.) at 420 nm. All data was analyzed using the XLFit (IDBSm) computer program. Efficacy is the percent maximum activation compared to activation by a control compound (SLIGRLm). pEC50 is the negative of the log(EC50), where EC50 is the calculated as a molar concentration (M) that produces 50% maximal activation.
These experiments provide a molecular profile, or fingerprint, for each of these agents at the human PAR2.
Efficacy is relative to the ligand SLIGRL.

As to `CC(=NNC(=O)C1C(=O)NCC1c1ccccc1)c1cccc(Br)c1` (mixture of isomers) [Compound 3, 2-Oxo-4-phenyl-3-pyrrolidinecarboxylic acid [1-(3-bromo-phenyl)-(E/Z)-ethylidene]-hydrazide], a half-maximal response (EC50) required 39.8 nM and the Emax worked out at 134%.

Regarding `CC(=NNC(=O)C1C(=O)NCC1c1ccccc1)c1ccc(Br)s1` (mixture of isomers) [Compound 4, 2-Oxo-4-phenyl-3-pyrrolidinecarboxylic acid [1-(5-bromo-thiophen-2-yl)-(E/Z)-ethylidene]-hydrazide], the EC50 was 631 nM and the Emax is 87%.

For `CC(=NNC(=O)C1C(=O)NCC1c1ccccc1)c1cccs1` (mixture of isomers) [Compound 5, 2-Oxo-4-phenyl-3-pyrrolidinecarboxylic acid [1-(thiophen-2-yl)-(E/Z)-ethylidene]-hydrazide], the EC50 is 1580 nM and the Emax was determined as 52%.

Regarding `CC(=NNC(=O)C1C(=O)NCC1c1ccccc1)c1cc(Br)cs1` (mixture of isomers) [Compound 6, 2-Oxo-4-phenyl-3-pyrrolidinecarboxylic acid [1-(4-bromo-thiophen-2-yl)-(E/Z)-ethylidene]-hydrazide], the EC50 was 398 nM and the Emax came to 109%.

`CC(=NNC(=O)C1C(=O)NCC1c1ccccc1)c1cncc(Br)c1` (mixture of isomers) [Compound 7, 2-Oxo-4-phenyl-3-pyrrolidinecarboxylic acid [1-(5-bromo-pyridine-3-yl)-(E/Z)-ethylidene]-hydrazide]: the EC50 is 794 nM and the Emax was found to be 106%.
